Results: patent US20090317476A1, “COMBINATION OF DEHYDROEPIANDROSTERONE OR DEHYDROEPIANDROSTERONE-SULFATE WITH A LEUKOTRIENE RECEPTOR ANTAGONIST FOR TREATMENT OF ASTHMA OR CHRONIC OBSTRUCTIVE PULMONARY DISEASE” (priority 2003, published 2009)
Values joined by “and” are separate entries in the source; they are usually repeats but may differ in a detail not shown here. Equal values may be shown once.

What was measured:
Intracellular adenosine = assay: In vivo effect on adenosine levels in rat tissues
Experimental: Folinic acid (50 mg/kg) was administered intraperitoneally once daily for fourteen days. […] Hearts were removed from animals and flash frozen in liquid nitrogen with 10 s of death. Liver and lungs were removed en bloc and flash frozen with 30 s of death. Brain tissue was subsequently dissected.

[1] = Particle size by Malvern Mastersizer X / light microscope after jet milling or spray drying; assay type: physicochemical
Experimental: Approximately 1 g sample was passed through the jet mill, once, and approximately 2 g sample were passed through the jet mill twice. […] The resulting solution was sonicated for 3 minutes and appeared fully dispersed. The dispersed solutions were tested on a Malvern Mastersizer X with a small volume sampler (SVS) attachment. One sample of dispersed material was tested 5 times. The median particle size or D (v, 0.5) of unmilled material was 52.56 μm and the % RSD (relative standard deviation) was 7.61 for the 5 values. The D (v, 0.5) for a single pass through the jet mill was 3.90 μm and the % RSD was 1.27, and the D (v, 0.5) from a double pass through the jet mill 3.25 μm and the % RSD was 3.10.
The solution was spray-dried with a B-191 Mini Spray-Drier (Buchi, Flawil, Switzerland) with an inlet temperature of 55° C., outlet temperature of 40° C., at 100% aspirator, at 10% pump, nitrogen flow at 40 mbar and spray flow at 600 units. The spray-dried product was suspended in hexane and Span85 surfactant added to reduce agglomeration. The dispersions were sonicated with cooling for 3-5 minutes for complete dispersion and the dispersed solutions tested on a Malvern Mastersizer X with a Small Volume Sampler (SVS) attachment. […] Visual examination by light microscope of the dispersions of each batch confirmed that spray drying produced small respirable size particles. The mean particle size was 2.4 μm and 2.0 μm for each batch, respectively.

HT-29 SF cells = assay: DHEA effect on cell cycle, flow cytometry; assay type: cell-based, human; settings: 25, 50, 200 μM; 24-72 hours
Experimental: Cells were plated at 10^5/60-mm dish in duplicate. […] Cultures were trypsinized following 0, 24, 48, or 74 hours and fixed and stained using a modification of a procedure of Bauer et al., Cancer Res. 46, 3173-3178 (1986). Briefly, cells were collected by centrifugation and resuspended in cold phosphate-buffered saline. Cells were fixed in 70% ethanol, washed, and resuspended in phosphate-buffered saline.
After 24, 48, and 72 hours, cells were harvested, fixed in ethanol, and stained with propidium iodide, and the DNA content/cell was determined by flow cytometric analysis. The percentage of cells in G1, S, and G2M phases was calculated using the Cellfit cell cycle analysis program. S phase is marked by a quadrangle for clarity. Representative histograms from duplicate determinations are shown. The experiment was repeated three times.

[2] = test system: rat peritoneal mast cells; assay: Mast cell degranulation (histamine secretion) after compound 48/80; assay type: cell-based
Description: Leukotrienes are synthesized within—although not exclusively by the mast cell (Gilchrist, M., McCauley, S.D., & Befus, A. D. (2004) Expression, localization, and regulation of NOS in human mast cell lines: effects on leukotriene production. Blood 104, 462-469.). We determined whether DHEA-sulfate would reduce mast cell degranulation after stimulation with compound 48/80 in rat peritoneal mast cells. Mast cell degranulation was quantified by measurement of histamine, another substance contained within the secretory granules of mast cells. The simple measurement of released histamine is used as a convenient surrogate marker for the release of leukotrienes.
Freshly isolated rat peritoneal mast cells (2×10^5 cells) were pre-incubated for 5 min at 37° C. in a Balanced Salt Solution containing 150 mM NaCl (pH 7.4), 2.7 mM KCl, 0.9 mM CaCl2, 4 mM Na2HPO4, 2.7 mM KH2PO4, 1.75 mg/ml BSA and 0.1 μg/ml compound 48/80. Thereafter, DHEAS or water (control) are added and the mixture is incubated for 2 min at 37° C.
Following incubation, the mixture is cooled to 4° C. then centrifuged at 4500 rpm for 5 min. […]
The amount of secreted histamine is quantified by measuring the fluorescence intensity at λex=360 nm and λem=450 nm using a spectrofluorimeter (GeminiXS, Molecular Devices). The results are expressed as a percent inhibition of control histamine secretion.

[3] = Solubility of DHEA-S as a function of NaCl and temperature; assay type: physicochemical; settings: 20 mM Na^+; Ksp 1316 mM^2; 15° C.
Description: Inhalation of pure water can produce a cough stimulus. […] The temperature effect is weaker at high NaCl concentrations.

[4] = Short-term solution stability of DHEA-S formulation; assay type: physicochemical; settings: for Appearance on storage: 10 mg/mL in 0.12% NaCl
Experimental: Aliquots of this solution are filled into clear glass vials and stored at RT (24-26° C.) and at 40° C. The samples are checked daily for DHEA-S content, DHEA content, and appearance. For each time point, duplicate samples are withdrawn and diluted from each vial. […] The study is stopped on day three. […] The solution should easily be stable for the day of reconstitution in a clinical trial. The following section describes the aerosol properties of this formulation.

[5] = Physicochemical testing of DHEA-S dihydrate before and after micronization; settings: for Water (% w/w): Karl Fischer
Experimental: Surface area is determined using five point BET analyses are performed with nitrogen as the adsorbing gas (P/Po=0.05 to 0.30) using a Micromeritics TriStar surface area analyzer. Particle size distributions are measured by laser diffraction using a Micromeritics Saturn Digisizer where the particles are suspended in mineral oil with sodium dioctyl sodium sulfosuccinate as a dispersing agent. Drug substance water content is measured by Karl Fischer titration (Schott Titroline KF). Pure water is used as the standard and all relative standard deviations for triplicates are less than 1%. Powder is added directly to the titration media.

[6] = Solid-state stability neat and with lactose at 50° C. (DHEA formed, HPLC); assay type: physicochemical
Description: These conditions were used to stress the formulation in order to predict its long-term stability results. […] The primary degradant is DHEA. […] The materials on accelerated storage become more cohesive with time as evidenced by clumping during sample weighing for chemical analysis. […] This is a considerable disadvantage since lactose is the most commonly used inhalation excipient for dry powder formulations. Continuing with the virtually anhydrous form would mean limiting formulations to neat powder or undertaking more comprehensive safety studies to use a novel excipient.

[7] = cited from earlier work

Nc1nc(=O)c2c([nH]1)NCC(CNc1ccc(C(=O)N[C@@H](CCC(=O)O)C(=O)O)cc1)N2C=O (mixture of isomers) [Folinic Acid, Folinic acid]
Effect on adenosine levels, administered alone (Intracellular adenosine; all organs studied): increase in adenosine levels | Effect of coadministration of folinic acid on steroid-mediated adenosine depletion (Intracellular adenosine; with DHEA or methyltestosterone): completely abrogated steroid-mediated adenosine depletion

C[C@]12CC[C@H](OS(=O)(=O)[O-])CC1=CC[C@@H]1[C@@H]2CC[C@]2(C)C(=O)CC[C@@H]12.[Na+] [Anhydrous DHEA-S]
D (v, 0.5) ([1]; double pass through the jet mill): 3.25 μm | D (v, 0.5) ([1]; single pass through the jet mill): 3.90 μm | median particle size or D (v, 0.5) ([1]; unmilled material): 52.56 μm

C[C@]12CC[C@H](O)CC1=CC[C@@H]1[C@@H]2CC[C@]2(C)C(=O)CC[C@@H]12 [DHEA, 3β-hydroxyandrost-5-en-17-one]
Effect on cell cycle distribution (HT-29 SF cells): G1 block

C[C@]12CC[C@H](OS(=O)(=O)[O-])CC1=CC[C@@H]1[C@@H]2CC[C@]2(C)C(=O)CC[C@@H]12.[Na+] [DHEA-S, sodium dehydroepiandrostenone sulfate]
maximal effect, percent inhibition of control histamine secretion ([2]; at 0.1 uM, compound 48/80 stimulated): 69.9% | solubility under the assay conditions ([2]; at 10^-4 M): highly limited | calculated DHEA-S solution concentration [3]: 10.7 mg/mL | calculated DHEA-S^− solution concentration [3]: 27.5 mM | Stability of nebulizer formulation ([4]; 7.5 mg/mL of DHEA-S in 0.12% NaCl, RT): stable for at least one day at RT | Appearance on storage ([4]; 40° C.): became cloudy after two days of storage | Appearance on storage ([4]; RT (24-26° C.)): slight precipitate is observed on the third day

C[C@]12CC[C@H](OS(=O)(=O)[O-])CC1=CC[C@@H]1[C@@H]2CC[C@]2(C)C(=O)CC[C@@H]12.O.O.[Na+] [DHEA-S•dihydrate]
Particle size (D50%) ([5]; Bulk): 31 microns | Water (% w/w) ([5]; Bulk): 8.5 % w/w | Particle size (D50%) ([5]; Micronized): 3.7 microns | Water (% w/w) ([5]; Micronized): 8.4 % w/w | Surface area (m^2/g) ([5]; Micronized, five point BET): 4.9 m^2/g | Percent DHEA formed ([6]; DHEA-S dihydrate, 50° C., 1 week): 0.216% | Percent DHEA formed ([6]; DHEA-S dihydrate, 50° C., 3 weeks): 0.317% | Percent DHEA formed ([6]; DHEA-S dihydrate, 50° C., 4 weeks): 0.374% | water content, starting value ([6]; before storage): 8.8% | Percent DHEA formed ([6]; dihydrate, Control, neat, sealed, 25° C., 4 weeks): 0.218% | Percent DHEA formed ([6]; dihydrate, Control, neat, sealed, 25° C., Time (Weeks)): 0.213% | water content after accelerated storage ([6]; one week at 50° C.): 8.66%

C[C@]12CC[C@H](OS(=O)(=O)[O-])CC1=CC[C@@H]1[C@@H]2CC[C@]2(C)C(=O)CC[C@@H]12.[Na+] [Spray-Dried Drug Product]
mean particle sizes ([1]; two batches of spray dried material, Malvern Mastersizer X, listed as spray-dried product): 5.07±0.70 μm and 6.66±0.91 μm

COc1cc(C(=O)NS(=O)(=O)c2ccccc2C)ccc1Cc1cn(C)c2ccc(NC(=O)OC3CCCC3)cc12 [Zafirlukast, 4(5-cyclopentyloxy-carbonylamino-1-methyl-indol-3ylmethyl)-3methoxy-N-o-tolylsulfonylbenzamide]
Solubility in acetone [7]: freely soluble | Solubility in dimethylsulfoxide [7]: freely soluble | Solubility in methanol [7]: slightly soluble | Solubility in tetrahydrofuran [7]: freely soluble | Solubility in water [7]: practically insoluble
